Converted amounts (≈) assume the structure as drawn. “And” between values parts separate entries of the source, which are not always exact repeats. Equal entries are not always repeated. Where two headings read alike, the source gives them in different places.
How the values were obtained:
PBRM1BD5 [1] = assay: TR-FRET ternary complex affinity and cooperativity, PBRM1; type: binding; conditions: ratio TR-FRET EC50 / TR-FRET EC50 +VCB measured in the same run, PBRM1BD5
PBRM1BD5 [2] = biological target: T1, PBRM1BD5 (Homo sapiens, UniProt P40337+Q86U86); assay: as above; type: binding; conditions: TR-FRET competition for PBRM1BD5, + VCB; mean ± SD; read-out: TR-FRET Ternary PBRM1BD EC50 (PROTAC + VCB)
T1 construct: GST (TEV site) (N); His6 (TEV site) (N, cleaved yes); made in house; host or cells: PBRM1^BD5: Escherichia coli BL21(DE3)
T1 sequence (Q86U86 645-766): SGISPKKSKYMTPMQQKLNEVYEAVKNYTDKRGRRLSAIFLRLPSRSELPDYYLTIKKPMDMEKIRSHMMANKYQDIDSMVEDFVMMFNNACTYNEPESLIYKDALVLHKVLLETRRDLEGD
T1 sequence (P40337 54-213): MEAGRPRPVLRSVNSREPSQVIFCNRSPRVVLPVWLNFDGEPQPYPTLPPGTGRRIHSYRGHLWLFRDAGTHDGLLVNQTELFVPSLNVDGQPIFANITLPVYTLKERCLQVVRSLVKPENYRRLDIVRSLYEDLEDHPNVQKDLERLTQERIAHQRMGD
T1 sequence (Q15369 17-112 partner): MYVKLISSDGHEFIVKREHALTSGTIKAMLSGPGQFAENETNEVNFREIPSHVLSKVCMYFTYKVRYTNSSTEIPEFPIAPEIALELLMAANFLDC
T1 sequence (Q15370 1-104 partner): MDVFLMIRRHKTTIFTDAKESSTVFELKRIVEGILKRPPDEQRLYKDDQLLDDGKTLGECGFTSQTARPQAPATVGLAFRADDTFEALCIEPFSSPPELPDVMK

[3] = tested on: VCB: PROTAC: SMARCA4^BD ternary complex; assay: TR-FRET ternary complex affinity and cooperativity, SMARCA4; type: binding, human; conditions: ratio TR-FRET EC50 / TR-FRET EC50 +VCB measured in the same run, SMARCA4BD
[4] = biological target: VCB: PROTAC: SMARCA4^BD ternary complex (Homo sapiens, UniProt P40337+P51532); assay: SPR ternary complex measurement, VCB immobilised, 10 µM SMARCA4^BD present; type: binding; design: P51532, residues 1448–1569 with additional N-terminal SM residues; His6 (TEV site) (N, cleaved yes); GST (TEV site) (N, cleaved yes); made in house; host or cells: SMARCA4^BD: Escherichia coli BL21(DE3); conditions: for Kd: SPR; for alpha: cooperativity, SMARCA4, ratio of KD values measured in the same run
VCB: PROTAC: SMARCA4^BD ternary complex (Homo sapiens, UniProt P40337+P51532), sequence (P40337 54-213): as the sequence (P40337 54-213) above
VCB: PROTAC: SMARCA4^BD ternary complex (Homo sapiens, UniProt P40337+P51532), sequence (Q15369 17-112 partner limits assumed): as the sequence (Q15369 17-112 partner) above
VCB: PROTAC: SMARCA4^BD ternary complex (Homo sapiens, UniProt P40337+P51532), sequence (Q15370 1-104 partner limits assumed): as the sequence (Q15370 1-104 partner) above
VCB: PROTAC: SMARCA4^BD ternary complex (Homo sapiens, UniProt P40337+P51532), sequence (P51532 1448-1569): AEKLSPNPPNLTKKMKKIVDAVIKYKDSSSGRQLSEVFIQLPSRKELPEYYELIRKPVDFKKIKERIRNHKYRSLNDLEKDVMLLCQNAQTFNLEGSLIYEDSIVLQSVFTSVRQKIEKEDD
Description: (§1) SPR data were acquired on Biacore 8K or T200 instruments (Cytiva). Target proteins were immobilised at 25 °C on CM5 chips by amine coupling (EDC/NHS, Cytiva) in HBS-P+ running buffer (pH 7.4), containing 2 mM TCEP. […] The reference surface was subsequently deactivated using 1 M ethanolamine. […] Biotinylated VCB was prepared as previously described[27]: in brief, the complex was mixed 1:1 with EZ-Link NHS–PEG4–biotin (Thermo Scientific) and incubated at room temperature for 1 h. Unreacted NHS-biotin was removed using a PD-10 desalting column (Cytiva) into 20 mM HEPES, pH 7.5, 150 mM sodium chloride and 1 mM DTT. The reference surface was generated by deactivating the EDC/NHS-treated surface with 1 M ethanolamine. All interaction experiments were done at 6 °C in running buffer (20 mM TRIS, pH 8.3, 150 mM potassium chloride, 2 mM magnesium chloride, 2 mM TCEP, 0.005% TWEEN 20, 1% dimethyl sulfoxide). For ternary complex measurements, a sensor chip surface with VCB immobilised was used (preparation as described above). Experiments were run in dual-inject mode with 10 µM SMARCA present during the injection and dissociation phase. Sensorgrams from reference surfaces and blank injections were subtracted from the raw data prior to data analysis using Biacore Insight software. Affinity and binding kinetic parameters were determined by global fitting using the 1:1 interaction model with a term for mass-transport included.

Solubility testing = type: physicochemical; conditions: for solubility at 24 h: buffer, kinetic from dmso stock
Description: Dilution into a 1:1 mixture of acetonitrile and water was used as reference. After 24 h, the incubations were filtrated, and the filtrate was analyzed by LC-UV.

[5] = biological target: VCB: PROTAC: SMARCA2^BD ternary complex (Homo sapiens, UniProt P40337+P51531); assay: SPR ternary complex measurement, VCB immobilised, 10 µM SMARCA2^BD present; type: binding; design: P51531-2, residues 1373-1493 with additional N-terminal SM residues; His6 (TEV site) (N, cleaved yes); GST (TEV site) (N, cleaved yes); made in house; host or cells: SMARCA2^BD: Escherichia coli BL21(DE3); conditions: for Kd: SPR; for alpha: cooperativity, SMARCA2, ratio of KD values measured in the same run
VCB: PROTAC: SMARCA2^BD ternary complex, sequence (P40337 54-213): as the sequence (P40337 54-213) above
VCB: PROTAC: SMARCA2^BD ternary complex, sequence (Q15369 17-112 partner limits assumed): as the sequence (Q15369 17-112 partner) above
VCB: PROTAC: SMARCA2^BD ternary complex, sequence (Q15370 1-104 partner limits assumed): as the sequence (Q15370 1-104 partner) above
VCB: PROTAC: SMARCA2^BD ternary complex, sequence (P51531 1373-1493 isoform P51531-2): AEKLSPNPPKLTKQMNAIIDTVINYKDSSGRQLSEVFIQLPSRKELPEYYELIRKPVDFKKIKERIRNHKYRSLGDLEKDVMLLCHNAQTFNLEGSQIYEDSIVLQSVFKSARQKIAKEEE
Description: as §1

Caco-2 cell monolayer = assay: Bidirectional permeability measurement in Caco-2 cells; type: in vitro ADME; conditions: for Caco-2 Pba: Caco-2, b to a; for Modified Caco-2 Pab + PGPi (Zosuquidar): Modified Caco-2, a to b; for Modified Caco-2 Pba / Modified Caco-2 Pba + PGPi (Zosuquidar): Modified Caco-2, b to a
Description: Bidirectional permeability of test compounds across a Caco-2 cell monolayer was measured as described[43] with a modification of preincubation time[44]: Briefly, Caco-2 cells were seeded onto Transwell inserts (#3379, Corning, Wiesbaden, Germany) at a density of 160000 cells/cm^2 and cultured in DMEM (high glucose) containing 10% fetal bovine serum for 14–21 days. Cells were incubated with culture media containing 1 µM test compound for 24 h. […] Samples were taken at different time points for up to 2 h. Test compound in the samples was quantified with LC-MS/MS. To elucidate the role of drug transporter P-gp in the transcellular transport, permeability measurement was performed in the absence and presence of the selective P-gp inhibitor zosuquidar (5 µM final concentration). Apparent permeability coefficients (Papp,AB, Papp,BA) were calculated as follows:1 Papp,AB=Q_AB/C0×s×t 2 Papp,BA=Q_BA/C0×s×t where Q is the amount of compound recovered in the receiver compartment after the incubation time t, C0 the initial compound concentration given to the donor compartment, and s the surface area of the Transwell inserts. Efflux ratio is calculated as the quotient of Papp,BA (mean of duplicate) to Papp,AB (mean of duplicate). […] In addition, Transepithelial electrical resistance (TEER) values were measured for each plate before the permeability assay. All three parameters (efflux of the reference substrates, Papp values of the low permeable compound, and TEER values) were used to ensure the quality of the assays.

[6] = ternary complex with SMARCA4BD, mean ± SD
[7] = pH 4.5, aqueous buffer, pH 4.5, read-out: Solubility pH 4.5
[8] = pH 6.8, aqueous buffer, pH 6.8, read-out: Solubility pH 6.8
[9] = ternary complex with SMARCA2BD, mean ± SD

| Structure (SMILES) | cooperativity α (PBRM1BD) (PBRM1BD5 [1]) | EC50 (PBRM1BD5 [2]) [nM] | cooperativity α (SMARCA4BD) [3] | Kd [4, 6] [nM] | Kd ([4]; ternary, individual replicates) | alpha [4] | solubility at 24 h (Solubility testing; [7]) [µg/mL] | solubility at 24 h (Solubility testing; [8]) [µg/mL] | Kd [5, 9] [nM] | Kd ([5]; ternary, individual replicates) | alpha [5] | Caco-2 Efflux ratio (Caco-2 cell monolayer; Caco-2) | Caco-2 Pab (Caco-2 cell monolayer; Caco-2, a to b) [cm/s] | Solubility pH 4.5 (Solubility testing; pH 4.5) [ug/mL] | Solubility pH 6.8 (Solubility testing; pH 6.8) | other results |
| --- | --- | --- | --- | --- | --- | --- | --- | --- | --- | --- | --- | --- | --- | --- | --- | --- |
| Cc1ncsc1-c1ccc(C(CCC(C)CCN2CCC(c3ccc4c(c3)n(C3CCCC3)c3nc(=O)c5c(Br)cccc5n43)CC2)NC(=O)C2CC(O)CN2C(=O)C(NC(=O)C2(F)CC2)C(C)(C)C)cc1 (stereo not drawn) [ACBI2] | 13.8 ± 1.5 | 5 ± 1 | 3.7 ± 0.8 | 24 ± 4 | 21.9 nM and 22.7 nM and 28.4 nM | 1.4 | < 1 | < 1 | 44 ± 11 | 35.8 nM and 56 nM and 41.1 nM | 0.8 |  |  |  |  |  |
| O=c1nc2n(C3CCCC3)c3ccccc3n2c2cccc(Br)c12 [compound 1] |  | 131 ± 8 |  |  |  |  | < 1 | < 1 |  |  |  | 0.8 | 3.09e-05 |  |  |  |
| Nc1cccc2c1c(=O)nc1n(C3CCCC3)c3ccccc3n21 [compound 2] |  | 959 ± 53 |  |  |  |  | < 1 | < 1 |  |  |  | 0.5 | 3.7e-05 |  |  |  |
| CN1CCC(c2ccc3c(c2)n(C2CCCC2)c2nc(=O)c4c(Br)cccc4n32)CC1 [compound 3] |  | 31 ± 11 |  |  |  |  | > 110 | > 100 |  |  |  | 0.8 | 2.83e-05 | > 100.000 | > 110.000 ug/mL and 94.000 ug/mL |  |
| Cc1ncsc1-c1ccc([C@H](COC(C)CN2CCC(c3ccc4c(c3)n(C3CCCC3)c3nc(=O)c5c(Br)cccc5n43)CC2)NC(=O)[C@@H]2C[C@@H](O)CN2C(=O)[C@@H](NC(=O)C2(F)CC2)C(C)(C)C)cc1 (stereo partly drawn) [compound 9] | 5.5 ± 1.7 | 7 ± 3 | 2.2 ± 0.2 | 180 ± 13 | 171 nM and 174 nM and 195 nM | 0.2 | 14 (≈ 13.3 µM) | < 1 | 210 ± 83 | 132 nM and 298 nM and 201 nM | 0.2 |  |  |  |  | Caco-2 Pba (Caco-2 cell monolayer): 21 ×10⁻⁶ cm/s and 18 ×10⁻⁶ cm/s; Modified Caco-2 Efflux ratio (Caco-2 cell monolayer): 60.000 and 39 ± 21; Modified Caco-2 Pab + PGPi (Zosuquidar) (Caco-2 cell monolayer): 11 ×10⁻⁶ cm/s and 14 ×10⁻⁶ cm/s; Modified Caco-2 Pba (Caco-2 cell monolayer): 130 ×10⁻⁶ cm/s and 120 ×10⁻⁶ cm/s; Modified Caco-2 Pba + PGPi (Zosuquidar) (Caco-2 cell monolayer): 18 ×10⁻⁶ cm/s |
| Cc1ncsc1-c1ccc([C@H](COC(C)CN2CCC(c3ccc4c(c3)n(C3CCCC3)c3nc(=O)c5c(Br)cccc5n43)CC2)NC(=O)[C@@H]2C[C@@H](O)CN2C(=O)[C@@H](NC(=O)C2(N(C)C)CC2)C(C)(C)C)cc1 (stereo partly drawn) [compound 10] | 4.2 ± 0.4 | 8 ± 1 | 2.6 ± 0.8 | 172 ± 115 | 305 nM and 102 nM and 109 nM | 0.7 | 210 (≈ 195 µM) | < 1 | 159 ± 80 | 74 nM and 233 nM and 171 nM | 0.8 | 5 |  |  | 2.000 ug/mL | Caco-2 Pab (Caco-2 cell monolayer; Caco-2): 6 10-6 cm/s; Caco-2 Pba (Caco-2 cell monolayer): 21 ×10⁻⁶ cm/s; Modified Caco-2 Efflux ratio (Caco-2 cell monolayer): 36; Modified Caco-2 Pba (Caco-2 cell monolayer): 99 ×10⁻⁶ cm/s and 88 ×10⁻⁶ cm/s |
| Cc1ncsc1-c1ccc([C@H](CCCCCN2CCC(c3ccc4c(c3)n(C3CCCC3)c3nc(=O)c5c(Br)cccc5n43)CC2)NC(=O)[C@@H]2C[C@@H](O)CN2C(=O)[C@@H](NC(=O)C2(F)CC2)C(C)(C)C)cc1 [compound 11] | 11.9 ± 1.3 | 4 ± 1 | 4.2 ± 0.4 | 18 ± 2 | 16.7 nM and 16.3 nM and 19.3 nM | 0.6 | < 1 | < 1 | 37 ± 12 | 45.4 nM and 28.1 nM | 0.3 |  |  |  |  | solubility (Solubility testing): moderate solubility; Caco-2 permeability (Caco-2 cell monolayer): improved permeability; efflux ratio (Caco-2 cell monolayer; Caco-2): high efflux ratio; Modified Caco-2 + PGPi (Zosuquidar) Pab (Caco-2 cell monolayer; Modified Caco-2 + PGPi (Zosuquidar)): 11 ± 3 10-6 cm/s; Modified Caco-2 Pab + PGPi (Zosuquidar) (Caco-2 cell monolayer): 12 ×10⁻⁶ cm/s and 16 ×10⁻⁶ cm/s and 9 ×10⁻⁶ cm/s and 8.7 ×10⁻⁶ cm/s; Modified Caco-2 Pba + PGPi (Zosuquidar) (Caco-2 cell monolayer): 19 ×10⁻⁶ cm/s |
| Cc1ncsc1-c1ccc([C@H](CC[C@H](C)CCN2CCC(c3ccc4c(c3)n(C3CCCC3)c3nc(=O)c5c(Br)cccc5n43)CC2)NC(=O)[C@@H]2C[C@H](O)CN2C(=O)[C@@H](NC(=O)C2(F)CC2)C(C)(C)C)cc1 [compound 12] | 1.0 ± 0.0 | 78 ± 7 | 0.9 ± 0.1 |  |  |  | < 1 | < 1 |  |  |  |  |  |  |  |  |
| CN1CCN(c2nc(=O)c3c(Cl)cccc3o2)CC1 [compound 13] |  |  |  |  |  |  |  |  |  |  |  | 0.606 and 0.6 | 9.26e-05 | >70.000 | >71.000 ug/mL | Caco-2 Pab (Caco-2 cell monolayer; Caco-2): 93 10-6 cm/s |
| CN1CCN(c2nc(=O)c3c(Br)cccc3o2)CC1 [compound 15] |  |  |  |  |  |  |  |  |  |  |  |  |  | >83.000 | >82.000 ug/mL |  |
| CN1CCN(c2nc(=O)c3c(I)cccc3o2)CC1 [compound 16] |  |  |  |  |  |  |  |  |  |  |  |  |  | >97.000 | >97.000 ug/mL |  |
| Cc1ncsc1-c1ccc(CNC(=O)[C@@H]2C[C@H](O)CN2C(=O)[C@@H](NC(=O)C2(F)CC2)C(C)(C)C)c(OCCN2CCC(c3ccc4c(c3)n(C3CCCC3)c3nc(=O)c5c(Br)cccc5n43)CC2)c1 [compound 19] | 1.0 ± 0.1 | 40 ± 1 | 0.9 ± 0.1 |  |  |  |  |  |  |  |  |  |  | <1.000 | <1.000 ug/mL |  |
| Cc1ncsc1-c1ccc(CNC(=O)[C@@H]2C[C@@H](O)CN2C(=O)[C@@H](NC(=O)C2(F)CC2)C(C)(C)C)c(OCCOCCOCCOCCN2CCC(c3ccc4c(c3)n(C3CCCC3)c3nc(=O)c5c(Br)cccc5n43)CC2)c1 [compound 22] | 2.6 ± 0.1 | 38 ± 5 | 9.1 ± 0.7 | 26 ± 2 | 24.6 nM and 23.9 nM and 28 nM | 1.5 |  |  | 77 ± 14 | 66.2 nM and 92.4 nM and 71.3 nM | 0.5 |  | <2.78e-07 |  |  | Caco-2 Pab (Caco-2 cell monolayer; Caco-2): <0.3 10-6 cm/s |
